“Also recorded” adds a separate entry of the source.
Experiments:
Type in all cases: in vivo, rat
aged rats = experiment: Von Frey testing of tactile sensitivity, aged rats
Description: Von Frey testing: Forty-eight hours after metabolism studies, tactile sensitivity was measured (once per week for the duration of the study) using von Frey nylon filaments applied to the suprapubic and plantar hindpaw (Stoelting Co., Wood Dale, Ill., USA). The median 50% withdrawal threshold (using up-down method) with positive responses are recorded as sharp retraction, licking/scratching, or vocalization.
Von Frey testing: Forty-eight h after the metabolism studies, tactile sensitivity was measured once per week using von Frey nylon filaments (Stoelting Co., Wood Dale, Ill., USA) applied to the suprapublic and plantar hindpaw. The median 50% withdrawal threshold (using an up-down method) with positive responses was recorded as sharp retraction, licking/scratching, or vocalization.
Von Frey Testing: Forty-eight hr after the metabolic cage studies, tactile sensitivity was measured once per week for the duration of the study using von Frey nylon filaments (Stoelting Co., Wood Dale, Ill., USA) applied to the suprapublic and plantar hindpaw. The withdrawal threshold (using up-down method) was determined, with positive responses defined as sharp retractions, licking/scratching, or vocalizations.

α-SMA = experiment: Western immunoblotting, α-SMA; details: aged rats; oral 8-AG 5 mg/kg/day, 6 weeks
Description: Western immunoblotting: Following the testing paradigms, rats were deeply anesthetized, bladders as well as the proximal urethra were removed, and one half of each preparation was homogenized using Lysing Matrix D in a FastPrep 24 instrument (MP Biomedicals, Solon, Ohio) in HBSS [5 mM KCl, 0.3 mM KH2PO4, 138 mM NaCl, 4 mM NaHO3, 0.3 mM Na2HCO3, 0.3 mM Na2HPO4, 5.6 mM glucose, and 10 mM Hepes, pH 7.4 containing a complete protease inhibitor cocktail (1 tablet/10 ml, ROCHE®, Indianapolis, Ind.) and a phosphatase inhibitor cocktail (SIGMA®, 1:100)]. After centrifugation (13000 rpm; 15 min at 4° C.), the membrane protein fraction was prepared by suspending the membrane pellets in lysis buffer containing 0.3 M NaCl, 50 mM Tris-HCl (pH 7.6), and 0.5% Triton X-100 and the same concentration of protease inhibitors as above. The suspensions were incubated on ice and centrifuged (13000 rpm; 15 min at 4° C.). The protein concentrations of the combined supernatants were determined using the PIERCE® BCA protein assay (THERMO SCIENTIFIC®, Rockford, Ill.). […] As a loading control, total protein per sample was determined using Bio-Rad Stain Free SDS-PAGE gel technology. UV-activated protein fluorescence was imaged on a CHEMIDOC® MP (BIO-RAD®). […] The volume (intensity) of each protein species was determined and normalized to total protein using Image Lab software (BIO-RAD®). […]

hydroxyproline = experiment: Hydroxyproline in detrusor smooth muscle (indicator of fibrosis); details: aged rats; oral 8-AG 5 mg/kg/day, 6 weeks
CYP-treated rats = experiment: Laser Doppler bladder blood flow in CYP cystitis model; details: CYP (75 mg/kg i.p.) female Sprague Dawley rats; oral 8-AG 5 mg/kg/day starting one week prior to CYP
Description: Animals: Female Sprague Dawley rats were employed in this example (Charles River; Wilmington, Mass.). Three groups of animals were included. Group 1 received an i.p. injection of saline and was used as a control; groups 2 and 3 received an i.p. injection of cyclophosphamide (CYP, SIGMA-ALDRICH®, St Louis, Mo., day 0, 3, 6, sacrifice day 8, 75 mg/kg, i.p.) with group 3 treated with oral 8-AG (5 mg/kg/day; starting one week prior to CYP). CYP induced bladder inflammation and is a well-established pre-clinical model for BPS/IC.
Blood Flow Changes: Real-time bladder blood perfusion (1 mm^3 tissue) was accomplished using a BLF22D laser Doppler flowmeter (Transonic Systems, Inc) with a surface probe (TypeS-APLPHS) applied to the serosal surface of the bladder (apex and neck) wall using Doppler light shift from moving RBCs to analyze flow by the Bonner algorithm. This method gives robust, non-invasive microvascular flow signals in the bladder wall of anesthetized rats.

[1] = aged Fischer 344 rats, oral 8-AG 5 mg/kg/day, 6 weeks
[2] = aged Fisher 344 rats, 8-AG 5 mg kg/day via drinking water, 1 month
[3] = aged rats, intravesical 100 μM 8-AG plus 10 μM DEA-NONOate, daily infusion 3-6 weeks

## Nc1nc2[nH]c(N)nc2c(=O)[nH]1 [8-AG, 8-Aminoguanine]
Aged rats; [1]
  abdominal response to tactile mechanical stimuli: restored to a younger state
  somatic response to tactile mechanical stimuli: restored to a younger state
Aged rats; [2]
  abdominal tactile mechanical sensitivity: restored to a younger state; also recorded: reversed
  somatic tactile mechanical sensitivity: restored to a younger state; also recorded: reversed
Aged rats; [3]
  abdominal tactile mechanical sensitivity: increase in sensitivity; also recorded: improves
  somatic tactile mechanical sensitivity: increase in sensitivity; also recorded: improves
α-SMA
  α-SMA expression in detrusor: increasing expression toward younger state; also recorded: normalized; also recorded: restored these biomarkers to that of a younger state
  α-SMA expression in urethra: increasing expression toward younger state; also recorded: normalized to a younger state
hydroxyproline
  hydroxyproline in detrusor smooth muscle: levels similar to the younger state; also recorded: restored these biomarkers to that of a younger state
CYP-treated rats
  bladder blood flow (CYP-induced hyperemia): abolished; also recorded: reversed to a control state

— patent US20220054494A1, “METHODS FOR TREATING BLADDER AND URETHRA DYSFUNCTION AND DISEASE” (University of Pittsburgh - Of the Commonwealth System of …, priority 2019, published 2022)
